Measured values published in paper PMC9879403, “Oncolytic strategy using new bifunctional HDACs/BRD4 inhibitors against virus-associated lymphomas” (PLOS Pathogens, 2023).
Like-named read-outs stand apart in the source and are kept apart here.

Tests used:
BCP-1 = test: WST-1 cytotoxicity assay, BCP-1 (KSHV+ PEL); type: cell-based; details: BCP-1, 72 h
From the text: (§1) Fig 2 Identification of newly synthesized dual inhibitors with anti-PEL activities. (A) The binding mode of (+)-JQ1 with BRD4^BD1 (PDB: 3MXF). BRD4^BD1 is shown as hot pink cartoon with gray surface. Asn140 in BRD4^BD1 is shown as sticks and colored in following pattern: atom C hot pink, atom N dark blue, and atom O yellow. (+)-JQ1 is shown as sticks and colored in following patten: atom C hot pink, atom N dark blue, atom O yellow, atom S golden, and atom Cl green. The solvent exposed region (SEG) of (+)-JQ1 are indicated with white arrow. (B) The binding modes of SAHA and entinostat with HDAC2 (PDB: 3MAX). HDAC2 is shown as blue cartoon with gray surface. Asp181 and His183 in HDAC2 are shown as sticks and colored in following pattern: atom C blue, atom N dark blue, and atom O yellow. The catalytic zinc ion in the active site of HDAC2 is shown as black sphere. SAHA is shown as sticks and colored in following pattern: atom C green, atom N dark blue, and atom O yellow. Entinostat is shown as sticks and colored in following pattern: atom C hot pink, atom N dark blue, and atom O yellow. The SEG of SAHA or entinostat is indicated with white arrow. Hydrogen bonds (H-bonds) are presented by red dash lines. (C) The HDACs/BRD4 dual inhibitors 002-011 were designed by fusing the key pharmacophores of (+)-JQ1 (pink) and HDAC inhibitors (blue), SAHA or entinostat, via various chemical linkers (green). (D) Anti-PEL activities of the new compounds. Five KSHV positive and two KSHV negative lymphoma cell lines were treated with indicated concentrations of these compounds for 72 h. Then the cytotoxicity was determined using the WST-1 assay. (+)-JQ1, SAHA and entinostat were used for the comparisons as single inhibitors. The CC50 for each compound was calculated using GraphPad Prism 5.0 software. Error bars represent S.D. for 3 independent experiments.
(§2) Fig 4 Identification of anti-PEL activities for compound 009 stereoisomers. (A) The chemical structures of anti-HDACs/BRD4 bifunctional molecules 009P1 and 009P2, as well as anti-HDACs or anti-BRD4 mono-functional molecules 009N1, 009N2, 009N3, and 009N4. (B-C) Four KSHV+ PEL cell lines were treated with indicated concentrations of 009P1, 009P2 or 009N1-N4 for 72 h, then the cytotoxicity was determined using the WST-1 assay. (D-I) BCBL-1 cells were treated with these compounds at the respective 2× CC50 for 24 h, then cell cycle (D-F) and apoptosis (G-I) were measured by flow cytometry analysis. Error bars represent S.D. for 3 independent experiments, ** = p<0.01 (vs vehicle control).
(§3) The cell viability following treatment with compounds was assessed by the WST-1 assay (Roche, Indianapolis, Indiana, USA) according to the manufacturer’s protocol as described previously. The absorbance signal was measured using a microplate reader (Biotek Synergy 2). The 50% cytotoxic concentration (CC50) for each compound was calculated from these dose-response curves using the software GraphPad Prism v5.0. Data were normalized as the fold change compared to the DMSO control.

BC-1 = test: WST-1 cytotoxicity assay, BC-1 (KSHV+ PEL); type: cell-based; details: Homo sapiens, BC1, 72 h
From the text: as §1, §2, §3

BRD4 = BRD4 signaling by Western blot (c-Myc expression); type: cell-based; details: BCBL-1 cells, 48 h, Western blot
JSC-1 = test: WST-1 cytotoxicity assay, JSC-1 (KSHV+ PEL); type: cell-based; details: 72 h
From the text: as §1, §2, §3

BCBL-1 = test: WST-1 cytotoxicity assay, BCBL-1 (KSHV+ PEL); type: cell-based; details: BCBL1, 72 h
From the text: as §1, §2, §3

BCBL-1 cells [1] = test: RNA-Sequencing of compound-treated vs vehicle-treated cells; type: cell-based, human
Protocol: RNA-Sequencing (RNA-Seq) of triplicate samples was performed by BGI Americas Corporation using their unique DNBSEQ sequencing technology. The completed RNA-Sequencing data was submitted to NCBI Sequence Read Archive (SRA# # PRJNA813422). Raw sequencing reads were analyzed using the RSEM software (version 1.3.0; human GRCh38 genome sequence and annotation) and gene expression was quantified as previously described. The EBSeq software was utilized to call differentially expressed genes that were statistically significant using a false discovery rate (FDR) less than 0.05. Differentially expressed genes between compounds- and vehicle-treated PEL cells were used as input for the GO enrichment analyses.

BCBL-1 cells [2] = test: PEL xenograft model (BCBL-1 cells i.p.); details: 20 mg/kg
Protocol: (A) Plasma concentrations of (+)-JQ1, SAHA, or 009P1 after a single administration of 50 mg per kg body (i.p. injection) were presented as mean ± SD (n = 3 mice per time point). (B-E) NOD/SCID mice were injected i.p. with BCBL-1 cells. 72 h later, the compounds or vehicle were administered i.p. as described in the Methods, and weights were recorded weekly. At the end of the treatment period, the splenic tissues were collected from the vehicle or compound treated mice, compared and processed with the H&E and IHC staining. (F) Plasma concentrations of 009P1 after a single administration of 50 mg per kg body (oral gavage) were presented as mean ± SD (n = 3 mice per time point). (G-I) NOD/SCID mice were injected i.p. with BCBL-1 cells. 72 h later, the compounds or vehicle were administered orally as described in the Methods, and weights were recorded weekly.
In all NOD/SCID mice, 6–8-week-old, male (Jackson Laboratory, Ellsworth, Maine, USA), 1 × 10^7 BCBL-1 cells in 200 μL RMPI-1640 without FBS were injected intraperitoneally and then mice were randomized into treatment groups of 6 mice as described previously. The tested compounds or vehicle was administered initially at 72 h after BCBL-1 injections, and continued once daily, 2 days per week for 3 weeks. Weights were recorded weekly as a surrogate measure of tumor progression. At the end of experiment, the spleens of mice were excised for immunoblots and immunohistochemical analyses.
Formalin-fixed, paraffin-embedded tissues were microtome-sectioned to a thickness of 4 μm and placed on electromagnetically charged slides. Immunohistochemistry was performed as described previously, and the c-Myc and H3K9Ac antibodies were purchased from Abcam. Images were collected using an Olympus BX61 microscope equipped with a high resolution DP72 camera and CellSense image capture software.

KSHV [3] = test: Viral DNA levels in PEL cells by qPCR; type: cell-based
HUVEC = test: WST-1 cytotoxicity on primary cells HUVEC; type: cell-based, human
Protocol: as §3
Supplementary file ppat.1011089.s006.tif: S5 Fig Cytotoxicity of tested compounds on HUVEC. The primary cells HUVEC were treated with indicated concentrations of compounds for 72 h, then cell viability was assessed using the WST-1 assay. The CC50 for each compound was calculated from the dose-response curves using Graphpad Prism 5.0 software. Data was normalized as the fold change compared to the DMSO control. (TIF) Click here for additional data file.

KSHV [4] = type: cell-based
BCBL-1 cells [5] = test: Cell death regulatory proteins by Western blot; type: cell-based; details: 50 nM, 48 h
HDACs = HDACs signaling by Western blot (H3K9Ac, H4K9Ac, Acetyl-tubulin); type: cell-based; details: BCBL-1 cells, 48 h, Western blot
BJAB.219 = test: WST-1 cytotoxicity assay, BJAB.219 (KSHV-infected lymphoma); type: cell-based; details: 50% cytotoxic concentration, 72 h, WST-1; read-out: KSHV-infected lymphomas CC50, BJAB.219
From the text: as §1
BCBL-1 and iSLK.219 cells were kindly provided by Dr. Pinghui Feng (University of Southern California). BL-41, BJAB, BCP-1, BC-1, BC-3, JSC-1, HUVEC cells were purchased from American Type Culture Collection (ATCC), and cultured as recommended by the manufacturer. For making BJAB.219 cells, BJAB cells were infected with rKSHV.219 stock by spinoculation as previously reported by centrifugation at 1500×g for 60 min [31]. Then, puromycin (10 μg/ml) was added into the medium at 72 h post-infection and the medium containing puromycin was replaced twice a week. After 6-week high concentration of puromycin selection, BJAB.219 cells were then cultured in the medium with 0.5 μg/ml puromycin.
The cell viability following treatment with compounds was assessed by the WST-1 assay (Roche, Indianapolis, Indiana, USA) according to the manufacturer’s protocol as described previously. The absorbance signal was measured using a microplate reader (Biotek Synergy 2). […]

[6] = WST-1 cytotoxicity assay, BJAB (KSHV negative lymphoma); type: cell-based; details: human
From the text: as §1, §3

[7] = WST-1 cytotoxicity assay, BL-41 (KSHV negative lymphoma); type: cell-based; details: human
From the text: as §1, §3

[8] = gene expression, treated vs vehicle BCBL-1 cells

## COC(=O)c1ccc([C@@H](C)OC(=O)C[C@@H]2N=C(c3ccc(Cl)cc3)c3c(sc(C)c3C)-n3c(C)nnc32)cc1 [009N3, methyl 4-((R)-1-(2-((S)-4-(4-chlorophenyl)-2,3,9-trimethyl-6H-thieno[3,2-f][1,2,4]triazolo[4,3-a][1,4]diazepin-6-yl)acetoxy)ethyl)benzoate]
BCP-1; read-out: CC50, BCP-1
  CC50: 2430 nM
BC-1; read-out: CC50, BC-1
  CC50: 1470 nM
BRD4
  c-Myc expression: drastically downregulated
JSC-1; read-out: CC50, JSC-1
  CC50: 9840 nM
BCBL-1; read-out: CC50, BCBL-1
  CC50: 670 nM

## Cc1sc2c(c1C)C(c1ccc(Cl)cc1)=N[C@@H](CC(=O)O[C@@H](C)c1ccc(C(=O)Nc3ccccc3N)cc1)c1nnc(C)n1-2 [009P2, (S)-1-(4-((2-aminophenyl)carbamoyl)phenyl)ethyl 2-((S)-4-(4-chlorophenyl)-2,3,9-trimethyl-6H-thieno[3,2-f][1,2,4]triazolo[4,3-a][1,4]diazepin-6-yl)acetate]
BCBL-1 cells [1]; BCBL-1, ≥ 2 fold-change and FDR < 0.05
  Genes differentially expressed between 009P1- and 009P2-treated PEL cells: 715 genes
BCBL-1 cells [1]; [8]
  Ratio, ARC: 17.91
  Ratio, ARRDC3: 41.32
  Ratio, ATF3: 22.98
  Ratio, CCDC169-SOHLH2: 0.1511
  Ratio, CD28: 0.1264
  Ratio, CD44: 0.1695
  Ratio, CFAP58: 0.2474
  Ratio, CHAC1: 9.244
  Ratio, CSF1R: 42.35
  Ratio, DDIT3: 16.53
  Ratio, DDIT4: 24.97
  Ratio, FOS: 77
  Ratio, IFNG: 0.1337
  Ratio, IRF7: 28.87
  Ratio, LGALS9B: 0.03508
  Ratio, MCM5: 0.1
  Ratio, PRKCB: 0.03195
  Ratio, RP11-707M3.3: 0.2332
  Ratio, SOCS3: 41.85
  Ratio, SPINT1: 0.1311
BCBL-1 cells [2]; i.p.
  PEL tumor progression (ascites formation, spleen enlargement): dramatically suppressed PEL tumor progression
  Tumor infiltration into the spleen (H&E): only diffuse small tumor nodules
  Visible toxicity in mice (abnormal weight loss): not observed
BCBL-1 cells [2]; oral administration
  Tumor burden in mice (ascites formation, spleen enlargement): effectively repressed tumor burden
KSHV [3]
  Viral DNA levels: slightly increased
BCP-1; read-out: CC50, BCP-1
  CC50: 28 nM
BC-1; read-out: CC50, BC-1
  CC50: 5.5 nM
HUVEC
  Cytotoxicity in primary cells HUVEC: much less cytotoxicity
KSHV [4]
  Expression of viral genes (LANA, RTA, ORF26): significantly increased
BRD4
  c-Myc expression: decreased
BCBL-1 cells [5]
  Expression of p-RB, cleaved-caspase 3 and cleaved-PARP: strongly affected
JSC-1; read-out: CC50, JSC-1
  CC50: 110 nM
HDACs
  H3K9Ac, H4K9Ac and Acetyl-tubulin protein levels: increased
BCBL-1; read-out: CC50, BCBL-1
  CC50: 3.3 nM

## Nc1ccccc1NC(=O)c1ccc(CNC(=O)OCc2cccnc2)cc1 [Entinostat, reference compound]
BJAB.219
  CC50: 180 nM
BCP-1; read-out: KSHV-infected lymphomas CC50, BCP-1
  CC50: 200 nM
BC-1; read-out: KSHV-infected lymphomas CC50, BC-1
  CC50: 300 nM
HUVEC
  Cytotoxicity in primary cells HUVEC: moderate cytotoxicity
[6]
  CC50 at 72 h: 420 nM
[7]
  CC50 at 72 h: 570 nM
JSC-1; read-out: KSHV-infected lymphomas CC50, JSC-1
  CC50: 150 nM
BCBL-1; read-out: KSHV-infected lymphomas CC50, BCBL-1
  CC50: 170 nM

## Cc1sc2c(c1C)C(c1ccc(Cl)cc1)=N[C@H](CC(=O)O[C@@H](C)c1ccc(C(=O)Nc3ccccc3N)cc1)c1nnc(C)n1-2 [009N2, (S)-1-(4-((2-aminophenyl)carbamoyl)phenyl)ethyl 2-((R)-4-(4-chlorophenyl)-2,3,9-trimethyl-6H-thieno[3,2-f][1,2,4]triazolo[4,3-a][1,4]diazepin-6-yl)acetate]
BCP-1; read-out: CC50, BCP-1
  CC50: 7680 nM
BC-1; read-out: CC50, BC-1
  CC50: 3120 nM
BRD4
  c-Myc expression: subtle effect
JSC-1; read-out: CC50, JSC-1
  CC50: > 10000 nM
HDACs
  H3K9Ac, H4K9Ac and Acetyl-tubulin protein levels: upregulated
BCBL-1; read-out: CC50, BCBL-1
  CC50: 1070 nM

## COC(=O)c1ccc([C@H](C)OC(=O)C[C@@H]2N=C(c3ccc(Cl)cc3)c3c(sc(C)c3C)-n3c(C)nnc32)cc1 [009N4, methyl 4-((S)-1-(2-((S)-4-(4-chlorophenyl)-2,3,9-trimethyl-6H-thieno[3,2-f][1,2,4]triazolo[4,3-a][1,4]diazepin-6-yl)acetoxy)ethyl)benzoate]
BCP-1; read-out: CC50, BCP-1
  CC50: 530 nM
BC-1; read-out: CC50, BC-1
  CC50: 340 nM
BRD4
  c-Myc expression: drastically downregulated
JSC-1; read-out: CC50, JSC-1
  CC50: 2320 nM
BCBL-1; read-out: CC50, BCBL-1
  CC50: 180 nM

## Cc1sc2c(c1C)C(c1ccc(Cl)cc1)=N[C@H](CC(=O)O[C@H](C)c1ccc(C(=O)Nc3ccccc3N)cc1)c1nnc(C)n1-2 [009N1, (R)-1-(4-((2-aminophenyl)carbamoyl)phenyl)ethyl 2-((R)-4-(4-chlorophenyl)-2,3,9-trimethyl-6H-thieno[3,2-f][1,2,4]triazolo[4,3-a][1,4]diazepin-6-yl)acetate]
BCP-1; read-out: CC50, BCP-1
  CC50: > 10000 nM
BC-1; read-out: CC50, BC-1
  CC50: > 10000 nM
BRD4
  c-Myc expression: subtle effect
JSC-1; read-out: CC50, JSC-1
  CC50: > 10000 nM
HDACs
  H3K9Ac, H4K9Ac and Acetyl-tubulin protein levels: upregulated
BCBL-1; read-out: CC50, BCBL-1
  CC50: 7560 nM
